Where “and” joins values, the source holds several entries; their conditions need not be identical. Equal values may be shown once. Entries after “also recorded” stand apart in the source; their conditions may differ. Read-outs that look alike come from different tables or passages of the source.

The term half-life denotes the time needed for the level to fall by half in the phase considered.

Data set [1] can be described thus: physchem. The following applies: for Hydrolytic stability in the preliminary test: pH 4, 7 and 9, 50 °C; for Hydrolytic stability in the preliminary test / Degradation level in the preliminary test: 5 days; for Degradation level in the preliminary test: dark. The procedure: The incubation was performed in the dark, in order to avoid the influence of the photolysis on degradation of the analytes. The water used for the preparation of buffers was autoclaved, all glassware was clean, flushed with methanol, and dried in high temperature. Samples were closed in glass tubes with a sealed cap. The air from above the solution was removed by a nitrogen stream just before capping. In the preliminary test, solutions of single analytes were prepared in each tested pH: 4, 7, and 9, which is required by the OECD guidelines. There was also a blank sample prepared for each pH. Samples in the preliminary test were prepared in two parallel replicates. Moreover, the complete preliminary test was repeated twice. The preliminary test was performed at 50 °C for 5 days. […] In the case of the extended tests, 7 measuring points were provided during the time of the test. Each measuring point was performed in two parallel replicates. […] The test was conducted for 30 days or to 90 % elimination of a compound. Obtained results were used to determine the hydrolysis rate constant (k) using equation: 1 lnCt/C0=kt
The HPLC-UV/Vis technique was applied to determine the level of hydrolytic degradation of the analytes. In the preliminary test, the control and blank samples were analyzed at the beginning and the end of the test. […] In the extended test, the samples collected in the time intervals were analyzed, and peak areas were compared to those obtained at the beginning of the test. This was used to determine the kinetic of this hydrolysis process by using the Equation 1. In general, each analyte was analyzed by a simple HPLC method with UV/Vis detection. Gemini C18 (Phenomenex, USA), 5 μm, 110 Å, 150 mm × 4.6 mm chromatographic column was applied for each method and three different mobile phases were used (water or 0.1 % HCOOH) mixed with the acetonitrile. The conditions applied during the LC-MS analysis with an ion trap detector for the qualitative analysis of the samples collected after the extended tests at 20 and 70 °C are presented in the Table S2.

On the set-up of data set [2]: method as in Yadav et al. [2012]. Particulars: also under several stress conditions; ref Yadav et al. [2012]; cited from earlier work.
Details of data set [3]: method as in Legay et al. [2014]. The following applies: ref Legay et al. [2014]; cited from earlier work.
The conditions of data set [4]: HPLC water with 4 % DMSO, ref Negreira et al. ([2013a]), cited from earlier work; for Degradation level / loss: 25 °C, 24 h incubation.
On the set-up of data set [5]: method as in Muñoz et al. ([1996]). The following applies: 20 °C, pH 5; ref Muñoz et al. ([1996]); cited from earlier work.
Data set [6] is described as follows: physchem. The format is physicochemical. Particulars: for half-life: buffer. The procedure:
Moreover, the complete preliminary test was repeated twice. […] Each measuring point was performed in two parallel replicates.
where t, time; ct, c0, concentration of the analyte at a time (0 means the beginning of the test); k, rate constant.
Based on this, the t1/2 was determined by using the equation: 2 t1/2=ln2/k
where t1/2, half-life of the analyte; k, rate constant.
The degradation was monitored for 30 days or until 90 % of a compound was degraded. Based on the obtained results (Fig. 4) the constant rates (k) and half-lives (t1/2) have been calculated (Table 1).
After determining the hydrolysis rate constants it was possible to calculate activation energy (Ea) of this process at each pH, either from plotting ln k from T^−1 (Figure 5) when there were three k values obtained for each compound and pH (CP at pH 4, 7, and 9 as well as IF at pH 4) or from the following equation (for IF at pH 7 and 9, where only two k values were obtained) (Table 1): 4 E=Rlnk2−lnk1/1/T1¯−1/T2
where R, gas constant (8.314 J/mol × K); k1, k2, rate constants for different temperatures; T, absolute temperature (K).

Data set [7] is described as follows: physchem. The format is physicochemical. Particulars: for half-life: buffer, read-out: t½, extrapolated half-life (converted). The procedure:
By obtaining at least two rate constants for two different temperatures, it is possible to calculate the rate constants and, in consequence, half-lives at other temperatures, according to the Arrhenius equation: 3 k=A×e^−E/R×Torlnk=−E/R×T+lnA
Therefore, these equations were applied to extrapolate the obtained results and calculate the rate constants and half-lives of unstable anticancer drugs in more environmentally relevant temperatures (4, 10, or 15 °C), which are typical to natural waters.
Additionally, these observations confirm that CP is much more vulnerable for hydrolysis than IF, which is interesting how two isomers (like CP and IF) may differently undergo hydrolysis process. […] If the conclusions were drawn only based on the results from the preliminary experiments (incubation at 50 °C for 5 days), it would be assumed that both compounds, especially CP, are very unstable. […] Moreover, using Equation 3, it was possible to extrapolate the results to determine the rate constants and half-lives at the temperatures 4, 10, and 15 °C, which are ordinary for environmental waters (Table 2).

Details of data set [8]: method as in McElnay et al. ([1988]) and Vrignaud et al. ([2015]). Particulars: ref McElnay et al. ([1988]) and Vrignaud et al. ([2015]); cited from earlier work.
Details of data set [9]: method as in Białk-Bielińska et al. [2017]. The following applies: ref Białk-Bielińska et al. [2017]; cited from earlier work.
On the set-up of data set [10]: method as in Negreira et al. ([2013b]). Particulars: acidification of samples, organic modifier such as 50 % methanol or DMSO, previously tested conditions; ref Negreira et al. ([2013b]); cited from earlier work.

For the compound `O=c1[nH]cc(F)c(=O)[nH]1` [5-FU, 5-fluorouracil], the half-life in “physchem [1]” (buffer) is at least 365 days. In addition, the “Hydrolytic stability in the preliminary test” value in “physchem [1]” is given as “hydrolytically stable”. In addition, the “Temperature up to which found stable” value in data set [2] was “up to 275 °C”. Moreover, in data set [3], the “Stability in aqueous solutions for medication purposes” value is listed as “stable”. Further, the “Stability in 24 h test” value was “stable” in data set [4] (4 °C, 24 h) and “still stable” in data set [4] (15 °C, 24 h). Further, the “Long-term stability at 4 °C” value in data set [4] (4 °C) is on record as “stable for 1 month”. Further, the “Degradation level / loss” value in [4] is reported as 11%.

Consider `O=P1(NCCCl)OCCCN1CCCl` (centres unmarked) [IF, ifosfamide], for which the “Degradation level in the preliminary test” value in the data set “physchem [1]” (pH 7, 50 °C) came to 22.3%; in the data set “physchem [1]” (pH 9, 50 °C), 27.5%. The half-life result in data set [5] is “around 620 days”; in the data set “physchem [6]” (pH 4, 20 °C, pH 4, read-out: Half-life (converted)), around 80 days; in “physchem [6]” (pH 4, 20 °C, pH 4, read-out: t½, half-life (converted)), 76.8 days; in “physchem [6]” (pH 4, 50 °C, pH 4, read-out: t½, half-life (converted)) it was 3.6 days; in the data set “physchem [6]” (pH 4, 70 °C, pH 4, read-out: t½, half-life (converted)), 0.488 days; in “physchem [6]” (pH 7, 50 °C, pH 7, read-out: t½, half-life (converted)), 10.1 days. For the same compound, the half-life in “physchem [6]” (pH 7, 70 °C, pH 7, read-out: t½, half-life (converted)) is 0.704 days; in “physchem [6]” (pH 9, 50 °C, pH 9, read-out: t½, half-life (converted)) it was 7.99 days; in “physchem [6]” (pH 9, 70 °C, pH 9, read-out: t½, half-life (converted)), 0.583 days; in “physchem [7]” (pH 4, 4 °C, pH 4), 349 days; in “physchem [7]” (pH 4, 10 °C, pH 4), 271 days; in the data set “physchem [7]” (pH 4, 15 °C, pH 4) it was 146 days. For the same compound, the half-life in “physchem [7]” (pH 7, 10 °C, pH 7) is 6360 days; in “physchem [7]” (pH 7, 15 °C, pH 7), 2580 days; in “physchem [7]” (pH 9, 4 °C, pH 9), 6510 days; in “physchem [7]” (pH 9, 10 °C, pH 9) it was 4520 days; in the data set “physchem [7]” (pH 9, 15 °C, pH 9) it was 1860 days. For the same compound, the “Degradation in 30 days” value in “physchem [6]” (20 °C, pH 7) is listed as “no degradation occurred; also recorded: no changes in the initial concentration; also recorded: completely stable”; in the data set “physchem [6]” (20 °C, pH 9) it was “no degradation occurred; also recorded: no changes in the initial concentration; also recorded: completely stable”. The “k, hydrolysis rate constant” value in “physchem [6]” (20 °C, pH 4) stood at 0.00038 h⁻¹; in the data set “physchem [6]” (50 °C, pH 4), 0.008 h⁻¹; in “physchem [6]” (50 °C, pH 7), 0.0029 h⁻¹; in “physchem [6]” (50 °C, pH 9), 0.0036 h⁻¹; in the data set “physchem [6]” (70 °C, pH 4), 0.059 h⁻¹; in the data set “physchem [6]” (70 °C, pH 7) it was 0.041 h⁻¹. Moreover, the “k, hydrolysis rate constant” value in “physchem [6]” (70 °C, pH 9) was determined as 0.049 h⁻¹. For the same compound, the “Ea, activation energy of hydrolysis” value in “physchem [6]” (pH 4) was 20.1 kcal/mol; in “physchem [6]” (pH 7), 29.21 kcal/mol; in the data set “physchem [6]” (pH 9), 29.21 kcal/mol and 28.7 kcal/mol. The “k, extrapolated rate constant” value in “physchem [7]” (4 °C, pH 4) is 8.3e-05 h⁻¹; in “physchem [7]” (4 °C, pH 7), 3e-06 h⁻¹; in the data set “physchem [7]” (4 °C, pH 9), 4e-06 h⁻¹; in the data set “physchem [7]” (10 °C, pH 4), 0.000107 h⁻¹; in “physchem [7]” (10 °C, pH 7), 5e-06 h⁻¹; in the data set “physchem [7]” (10 °C, pH 9), 6e-06 h⁻¹. Also, the “k, extrapolated rate constant” value in “physchem [7]” (15 °C, pH 4) is 0.000199 h⁻¹; in “physchem [7]” (15 °C, pH 7), 1.1e-05 h⁻¹; in the data set “physchem [7]” (15 °C, pH 9), 1.6e-05 h⁻¹.

As to `CN(Cc1cnc2nc(N)nc(N)c2n1)c1ccc(C(=O)N[C@@H](CCC(=O)O)C(=O)O)cc1` [MTX, methotrexate], in [8], the “Time of proved stability” value is recorded as “at least 24 h”. For the same compound, in the data set “physchem [1]” (aqueous buffer), the half-life was at least 365 days. In addition, the “Hydrolytic stability in the preliminary test” value in “physchem [1]” is recorded as “hydrolytically stable”. In addition, the “Degradation level in the preliminary test” value in the data set “physchem [1]” (pH 4, 50 °C) is 0%. Moreover, in data set [9], the “Hydrolytic stability under ecotoxicological test conditions” value was “hydrolytically stable” and the “Photolytic stability under ecotoxicological test conditions” value is listed as “susceptible to photolysis”. For the same compound, in data set [10], the “Stability after acidification and with organic modifier” value is on record as “stable”. The “Stability in 24 h test” value in data set [4] (4 °C, 24 h) was “stable”. In addition, the “Concentration decreased to” value in data set [4] (4 °C, after 9 days) is reported as “around 50%”. Also, the Disappeared from solution entry in data set [4] (15 °C, 24 h) is recorded as “more than 50%”. Moreover, in data set [4], the “Degradation level / loss” value is recorded as 65%.

(Values after publication PMC8536627, “Hydrolytic stability of anticancer drugs and one metabolite in the aquatic environment” (Environmental Science and Pollution Research International, 2021).)
